From patent publication US8623919B2, “Method of synthesizing S-allyl-cysteine analogues and their therapeutic application in treating myocardial infarction” (Fudan University, priority 2007, dated 2014)

Assays:
rats following MI injury [1] = assay: Serum LDH in rats (sham or MI); type: in vivo, SD rats; settings: Sham rats; 50 mg/Kg/day intraperitoneal
Procedure: (§1) Animals were assigned and prepared the same as in Example 7, and dosages of SPRC and SAC were used the same in this example as in Example 7.
(§2) Serum CK levels were detected with diagnostic kit (NJBI, China) according to the instructions. LDH were determined calorimetrically with a spectrophotometer. Lipid peroxidation was measured in terms of MDA content using the thiobarbituric acid (TBA) assay. […] With regard to lipid peroxidation, the levels of MDA in MI groups increased at 48 h after myocardial infarction. […] (FIG. 14)

H9c2 cells [2] = assay: LDH leakage of H9c2 cells injured by H2O2; type: cell-based; settings: for LDH Leakage: H2O2 200 μmol/L 2 hours
Procedure: H9c2 cells were cultured in DMEM with 10% of fetal bovine serum, 37 degree C. and 5% CO2 incubator. The monolayer culture was split at a 1:4 ratio or harvested to perform experiments when confluence was 70-80%. Adjust the density of the cells to […] and inoculate the cells on a 96 well plate.
H2O2 injury (Model) group, no SAC analogues treatment, under H2O2 200 μmol/L for 2 hours.
PAG group, PAG 10^−4/mol/L
SPRC dosage groups: SPRC 1E-7, SPRC 1E-6, SPRC 1E-5, the cell groups were treated with SPRC dosages of 10^−7 mol/L, 10^−6 mol/L, 10^−5 mol/L respectively.
SPRC dosage+PAG groups: the cell group was treated with SPRC dosages of 10^−5 mol/L and PAG 10^−4 mol/L.
The cell samples (10^6 cells/sample) from each group were lysed under sterilized condition, and LDH contents in each samples were tested by pyruvic acid production method.

H9c2 cells [3] = assay: Apoptosis of H9c2 cells, Hoechst and PI double stain; type: cell-based; settings: H2O2 injured H9c2; Hoechst 33342 and PI double stain
Procedure: (§3) H9c2 cells were cultured same as Example 12, the cells were then divided into the groups same as Example 12.
Cells were washed in PBS and then stained with Hoechst 33342 (10 μg/ml) and propidium iodide (10 μg/ml) for 10 min at 37° C. Cells were washed again with PBS and fixed with 3.7% paraformaldehyde (v/v). Each field of cells was photographed twice (magnification, ×400), using appropriate filters to examine and compare Hoechst 33342 and PI fluorescence staining in the same cells. […]. Apoptosis is of great damage to the structure and the function of the heart, which leads to heart failure.

rats following MI injury [4] = assay: Plasma H2S levels in rats (sham or MI); type: in vivo, SD rats; settings: 50 mg/Kg/day intraperitoneal
Procedure: as §1
The plasma levels of H2S in each treatment group were determined since CSE mediates the endogenous production of H2S in mammals. Plasma H2S concentrations in MI group rats at 48 h after MI induction were 34.7±5.6 μM (n=8). […] Left ventricular CSE activity was analyzed in the tissue homogenates from each treatment group (n=6). CSE activity was 1.58±0.15 μmol/g protein/hr in left the ventricular tissues in MI group and 2.19±0.32 μmol/g protein/hr in the MI+SAC treated rats.

CSE mRNA = assay: RT-PCR of CSE mRNA in left ventricle; type: in vivo, SD rats; settings: MI rats, 50 mg/Kg/day
Text: as §1
(§4) To further verify the effects of SPRC and SAC, the expressions of Bcl-2, Bax and CSE mRNA were accessed by RT-PCR (FIG. 17). An isoform of the CSE gene was detected (GenBank; access no. AY641456). The relative amounts of CSE mRNA in Left ventricular subjected to MI were increase 3.3-fold and 1.5-fold following SPRC and SAC exposure as compared to the MI group.

H9c2 cells [5] = assay: Mn-SOD activity of H9c2 cells injured by H2O2; type: cell-based; settings: H2O2 injured H9c2; SPRC Low Dose 10^−7 mol/L
Procedure: as §3
The cells were lysed under sterilized condition, and lipid peroxidation experiments on the samples were performed. […] The effect of SPRC could be blocked by PAG, indicating SPRC mediates its effect on H9c2 cell by way of endogenous H2S.

Bax mRNA = assay: RT-PCR of Bax mRNA in left ventricle; type: in vivo, SD rats; settings: MI rats, 50 mg/Kg/day, p<0.05
Text: as §1, §4

rats following MI injury [6] = assay: Serum CK in rats (sham or MI); type: in vivo, SD rats; settings: Sham rats; 50 mg/Kg/day intraperitoneal
Procedure: as §1, §2

rats following MI injury [7] = assay: ECG in rats following MI injury; type: in vivo, SD rats; settings: 50 mg/Kg/day, day 10, 48 hr after the induction of MI
Procedure: SPRC and SAC were dissolved in saline (vehicle). Male SD rats (weight 200-250 g) were randomly assigned to […] treatment groups: group (1) Sham group: Sham-treated with saline (n=4), (2) Sham+SPRC group: Sham-treated with SPRC (50 mg/Kg/day) (n=4), (3) Sham+SAC group: Sham-treated with SAC (50 mg/Kg/day) (n=4), (4) MI group: MI treated with saline (n=8), (5) MI+SPRC group: MI treated with SPRC (50 mg/Kg/day) (n=8), (6) MI+SAC group: MI treated with SAC (50 mg/Kg/day) (n=8). Rats were pre-treated for seven days with each SAC analogues respectively via an intraperitoneal injection once daily before they were used for MI model studies. […] Briefly, the rats were anesthetized with 7% choral hydrate (60 mg/kg intraperitoneal injection), endotracheally intubated and mechanically ventilated with room air, respiratory rate 100 breaths/min, tidal volume 2.5 ml with a rodent ventilator (DHX-150, China). ECG was recorded in the anaesthetized animal for a period of one minute using the Animal Mflab200 amplifier (Produced in China). A left thoracotomy was performed and the third intercostal space was exposed. […] Then incisions were sutured and the chests were closed. […] Forty eight hours after the surgery, ECG was recorded for each rat in each group. […] To evaluate the effect of SPRC and SAC on MI, infarct size were measured after TTC staining (FIG. 12).

## C#CCSC[C@H](N)C(=O)O [SPRC, S-propargyl-cysteine]
Rats following MI injury [1]
  LDH: 2612 ± 189 U/L
H9c2 cells [2]; SPRC High Dose 10^−5 mol/L
  LDH Leakage: 43.9 ± 3.0 %
H9c2 cells [2]; SPRC Low Dose 10^−7 mol/L
  LDH Leakage: 51.4 ± 1.8%
H9c2 cells [2]; SPRC middle Dose 10^−6 mol/L
  LDH Leakage: 50.0 ± 2.6 %
H9c2 cells [2]; H2O2 injured H9c2, SPRC groups (10^−7 to 10^−5 mol/L)
  LDH leakage compared with model group: less LDH leakage than that of model group
H9c2 cells [3]
  apoptosis of H9c2 cells: effective on inhibiting apoptosis of H9c2 cells
Rats following MI injury [4]; MI rats, 48 h after MI induction, 50 mg/kg/day
  H2S concentration in plasma: 91.6 ± 7.6 µM
Rats following MI injury [4]; Sham rats
  H2S concentration in plasma: 67.2 ± 6.4 µM
CSE mRNA
  relative amounts of CSE mRNA, increase as compared to the MI group: 3.3 fold
H9c2 cells [5]
  Mn-SOD Activity: 8.75 ± 0.68 U/mgprot
Bax mRNA
  Bax gene expression: down regulated
Rats following MI injury [6]
  CK: 0.251 ± 0.032 U/ml
Rats following MI injury [7]
  ST-segment elevation in ECG: less elevated ST-segment
